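Step 1: Grow cells in 96-well plates. Step 2: Expose to compound for 48 hours at 5 concentrations. Step 3: Interpolate endpoints linearly; if unreached, use highest concentration. GI50 is the concentration that inhibits growth by half. TGI: concentration producing complete growth inhibition.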
How the values were obtained:
Assay in all cases: NCI anticancer screen, dose series, 48 h
NCI-H226 lung = system: NCI-H226 lung
SF-295 CNS = system: SF-295 CNS
SK-MEL-5 melanoma = system: SK-MEL-5 melanoma
NCI-H460 lung = system: NCI-H460 lung
LOX IMVI melanoma = system: LOX IMVI melanoma
MCF7 breast = system: MCF7 breast
SR leukemia = system: SR leukemia
CCRF-CEM leukemia = system: CCRF-CEM leukemia
HOP-62 NSCLC = system: HOP-62 NSCLC
XF 498 CNS = system: XF 498 CNS
HOP-18 NSCLC = system: HOP-18 NSCLC

| Compound | TGI (NCI-H226 lung) | TGI (SF-295 CNS) | TGI (SK-MEL-5 melanoma) | TGI (NCI-H460 lung) | TGI (LOX IMVI melanoma) | TGI (MCF7 breast) | TGI (SR leukemia) | TGI (CCRF-CEM leukemia) | TGI (HOP-62 NSCLC) | TGI (XF 498 CNS) | TGI (HOP-18 NSCLC) | GI50 (NCI-H226 lung) | GI50 (SF-295 CNS) | GI50 (SK-MEL-5 melanoma) | GI50 (NCI-H460 lung) | GI50 (LOX IMVI melanoma) | GI50 (MCF7 breast) | GI50 (SR leukemia) | GI50 (CCRF-CEM leukemia) | GI50 (HOP-62 NSCLC) |
| --- | --- | --- | --- | --- | --- | --- | --- | --- | --- | --- | --- | --- | --- | --- | --- | --- | --- | --- | --- | --- |
| COc1cc2c(cc1OC)C(C1CC1)ON(C)CC2 (stereo unspecified) | > 100 µM | > 100 µM | > 100 µM | > 100 µM | > 100 µM | > 100 µM | > 100 µM | > 100 µM | > 100 µM | – | – | – | – | – | – | – | – | – | – | – |
| Cc1cc(C)c(C2=NO[C@@H]3[C@H]2C(=O)C=C2N(Cc4ccccc4)CCO[C@@]23O)c(C)c1 | > 100 µM | > 100 µM | > 100 µM | > 100 µM | > 100 µM | > 100 µM | – | > 100 µM | > 100 µM | > 100 µM | > 100 µM | – | – | – | – | – | – | – | – | – |
| Nc1ncnc2c1ncn2CCCNO | > 100 µM | > 100 µM | > 100 µM | > 100 µM | > 100 µM | > 100 µM | > 100 µM | > 100 µM | > 100 µM | – | – | – | – | – | – | – | – | – | – | – |
| Nc1ccc2c3c1cccc3c(=O)n1c3ccc(Cc4ccc5c(c4)nc4c6ccc(N)c7cccc(c(=O)n54)c76)cc3nc21 | > 100 µM | > 100 µM | > 100 µM | > 100 µM | > 100 µM | > 100 µM | > 100 µM | > 100 µM | > 100 µM | – | – | – | – | – | – | – | – | – | – | – |
| C=C(C)C1CCC2(C)C1CCC1(C)C2CCC2C3(C)C4OC(OC4=O)C(C)(C)C3CCC21C (stereo unspecified) | > 100 µM | > 100 µM | > 100 µM | > 100 µM | > 100 µM | > 100 µM | > 100 µM | > 100 µM | > 100 µM | – | – | – | – | – | – | – | – | – | – | – |
| COC(=O)c1sc2c(Cl)c(Cl)sc2c1Cl | > 100 µM | > 100 µM | > 100 µM | > 100 µM | > 100 µM | > 100 µM | > 100 µM | > 100 µM | > 100 µM | – | – | – | – | – | – | – | – | – | – | – |
| CC(C)C(Nc1c2ccccc2[n+](C)c2ccccc12)C(=O)O (stereo unspecified) | > 100 µM | > 100 µM | > 100 µM | > 100 µM | – | – | > 100 µM | – | > 100 µM | > 100 µM | > 100 µM | – | – | – | – | – | – | – | – | – |
| COc1ccccc1-c1cc(=O)c2cccnc2[nH]1 | > 100 µM | > 100 µM | > 100 µM | > 100 µM | > 100 µM | > 100 µM | > 100 µM | > 100 µM | > 100 µM | – | – | – | – | – | – | – | – | – | – | – |
| Oc1ccccc1/C=N/c1nc(-c2ccccc2)cs1 | > 100 µM | > 100 µM | > 100 µM | > 100 µM | 46.9 µM | 40.8 µM | 79.5 µM | 65 µM | > 100 µM | – | – | 35.1 µM | > 100 µM | 47.6 µM | > 100 µM | 17.6 µM | 14.1 µM | 24.3 µM | 19.7 µM | > 100 µM |
| CC(C)(C)c1cc(C(C)(C)C)c2sc(=O)oc2c1O | 36.2 µM | 23.9 µM | 27.9 µM | 18.8 µM | 27.7 µM | 28 µM | 63.6 µM | > 100 µM | 33.2 µM | – | – | – | – | – | – | – | – | – | – | – |
| CCOc1ccc(Nc2nc(N)nc(N)c2N=O)cc1 | > 100 µM | > 100 µM | > 100 µM | > 100 µM | > 100 µM | > 100 µM | > 100 µM | > 100 µM | > 100 µM | – | – | – | – | – | – | – | – | – | – | – |
| CC1CC(C)(C)CC(OCCN2CCCCC2)(c2ccccc2)C1 (stereo unspecified) | 38.3 µM | 22.9 µM | 22.9 µM | 17.5 µM | 21.3 µM | 26.4 µM | 20.4 µM | 24.9 µM | 26.5 µM | – | – | – | – | – | – | – | – | – | – | – |
| CCOC(=O)c1c(-c2ccc(Cl)cc2)c(C#N)c(=S)n(C2OC(COC(C)=O)C(OC(C)=O)C(OC(C)=O)C2OC(C)=O)c1C (stereo unspecified) | > 100 µM | > 100 µM | > 100 µM | > 100 µM | > 100 µM | > 100 µM | > 100 µM | > 100 µM | > 100 µM | – | – | – | – | – | – | – | – | – | – | – |
| N#Cc1cc2c(n(C3OC(CO)C(O)C(O)C3O)c1=S)CCC2 (stereo unspecified) | > 100 µM | > 100 µM | > 100 µM | > 100 µM | > 100 µM | > 100 µM | > 100 µM | > 100 µM | > 100 µM | – | – | – | – | – | – | – | – | – | – | – |
| O=C(CCCCCCCCC(=O)N1C(=O)CC(=O)N(c2ccc(Cl)cc2)C1=S)N1C(=O)CC(=O)N(c2ccc(Cl)cc2)C1=S | > 100 µM | > 100 µM | > 100 µM | > 100 µM | > 100 µM | > 100 µM | 83.7 µM | 87.1 µM | > 100 µM | – | – | – | – | – | – | – | – | – | – | – |
| O=c1[nH]c2ccccc2c(=O)n1/N=C\c1ccccc1O | > 100 µM | > 100 µM | > 100 µM | > 100 µM | > 100 µM | > 100 µM | > 100 µM | > 100 µM | > 100 µM | – | – | – | – | – | – | – | – | – | – | – |
| CN=C1C=C(/N=C2/C=C(N/C(=C\C#N)C(C)(C)O)OC2(C)C)OC1(C)C | > 100 µM | > 100 µM | > 85.7 µM | > 100 µM | > 100 µM | > 100 µM | > 68.5 µM | > 74 µM | > 100 µM | – | – | – | – | – | – | – | – | – | – | – |
| CN(CC(=O)O)c1ncc2c(n1)-c1ccccc1CC2 | > 100 µM | > 100 µM | > 100 µM | > 100 µM | > 100 µM | > 100 µM | > 100 µM | > 100 µM | > 100 µM | – | – | – | – | – | – | – | – | – | – | – |
